Laboratory results published in publication PMC6222624, “Identification of Alkaloids from Corydalis yanhusuo W. T. Wang as Dopamine D1 Receptor Antagonists by Using CRE-Luciferase Reporter Gene Assay” (Molecules : A Journal of Synthetic Chemistry and Natural …, 2018).
Where two headings read alike, the source gives them in different places.

Key:
HEK/CRE/Luc2P cells = assay: Specificity control: forskolin-stimulated CRE-luciferase response in HEK/CRE/Luc2P negative control cells; type: cell-based, human; conditions: for decrease of forskolin-stimulated response (cAMP levels): forskolin 1 μM, high doses of compound, Figure S2
Experimental: HEK293 cells stably expressing cDNA plasmid of CRE/Luciferase (HEK/CRE/Luc2P) were established as the negative control cells to test the specificity to the D1 receptor for the compounds.
(§1) The pGL4.29 (CRE/luc2P//Hygro) luciferase reporter gene was stably co-transfected with dopamine D1 receptor plasmid or was stably transfected individually in HEK293 cells. Transfection was carried out with lipofectamine 2000 reagent using the protocol provided by Promega. Stable cells expressing CRE-Luciferase and D1 receptor were selected in the presence of 700 μg/mL G418 and 200 μg/mL hygromycin for 10–14 days. Stable cells expressing CRE-Luciferase were singly selected in the presence of 200 μg/mL hygromycin. The obtained stable cells were then cultured with 350 μg/mL G418 and 100 μg/mL hygromycin or only 100 μg/mL hygromycin to maintain the selective growth.
(§2) The examination of CRE-luciferase activity was performed by a modification of methods as described previously. HEK293 stable cells were seeded in 96-well plates at a density of 1.5 × 10^4 cells per well. After cells became adherent, they were […] in serum-starved DMEM for different hours to explore the most suitable starving time. Cells were then pretreated with compounds for 1 h prior to dopamine stimulation. Afterwards, the cells were lysed with luciferase lysis buffer and the luminescence of the firefly luciferase was measured with the FlexStation 3 (Molecular Devices, Sunnyvale, CA, USA).

human D1 receptors = biological target: T1, human D1 receptors (Homo sapiens, UniProt P21728); assay: Fluorescent Ca2+ mobilization assay (FLIPR) in HEK 293T cells expressing D1 receptors and Gα15; type: cell-based; conditions: for antagonist profile in FLIPR assay: concentration-response, Figure 4B; for antagonist profile in FLIPR assay / % Maximal Inhibition Mean ± SD (N = 3), FLIPR: dopamine 500 nM
T1 construct: The cDNA plasmids of D1-like receptors were stably transfected into HEK 293T cells; expressed in transfected cells
Experimental: We used a fluorescent Ca^2+ mobilization assay to further evaluate the hit compounds obtained from the luciferase reporter gene assay screens. […] With the coexpression of Gα15 protein, D1 receptors can be redirected to mediate intracellular calcium mobilization upon stimulation. Calcium levels were monitored using fluorometric imaging plate reader (FLIPR). The assay can also distinguish potential antagonists from agonists.
Fluorescent Ca^2+ mobilization assay was performed using Flu-4 AM reagent as reported earlier.
(§3) All statistical calculations were performed using GraphPad Prism 5.0 (GraphPad, Avenida, CA, USA). Data from each dose-response curve were normalized to the maximal stimulation by dopamine. At least three independent experiments were performed.

dopamine D1 receptor = biological target: T2, dopamine D1 receptor (Homo sapiens, UniProt P21728); assay: CRE-luciferase reporter gene assay in HEK-D1/CRE/Luc2P cells; type: cell-based; conditions: for Emax / antagonist profile in luciferase reporter gene assay: dopamine 2 nM; for Emax: read-out: % Maximal Inhibition Mean ± SD (N = 3), Luciferase; for inhibition at 12.5 µM: single screening concentration 12.5 μM, read-out: inhibition in single-concentration screening (activity threshold); for antagonist profile in luciferase reporter gene assay: concentration-response, Figure 4A / Figure S3
T2 construct: Dopamine D1 receptor gene cloned in pcDNA 3.1 was kindly provided by Dr. Olivier Civelli; expressed in transfected cells
Description: The cDNA plasmids of dopamine D1 receptor and CRE/Luci were stably co-transfected into human embryonic kidney-293 cells (HEK293) cells (HEK-D1/CRE/Luc2P). Activation of D1 receptors leads to the elevation of cAMP and activates the cAMP response element (CRE) and therefore induces the expression of the reporter gene luciferase. We used the natural ligand dopamine as a positive control to select the cell colony and to optimize and characterize the HEK-D1/CRE/Luc2P cell system.
as §1, §2, §3

[1] = inhibition of dopamine (500 nM) Ca2+ mobilization, HEK-D1/Gα15 cells, IC50 based on the degree of maximal inhibition, read-out: IC50 (μM) with 95% Confidence Intervals, FLIPR
[2] = inhibition of dopamine (2 nM) response, HEK-D1/CRE/Luc2P cells, IC50 based on the degree of maximal inhibition, read-out: IC50 (μM) with 95% Confidence Intervals, Luciferase

T1 sequence (P21728 whole entry): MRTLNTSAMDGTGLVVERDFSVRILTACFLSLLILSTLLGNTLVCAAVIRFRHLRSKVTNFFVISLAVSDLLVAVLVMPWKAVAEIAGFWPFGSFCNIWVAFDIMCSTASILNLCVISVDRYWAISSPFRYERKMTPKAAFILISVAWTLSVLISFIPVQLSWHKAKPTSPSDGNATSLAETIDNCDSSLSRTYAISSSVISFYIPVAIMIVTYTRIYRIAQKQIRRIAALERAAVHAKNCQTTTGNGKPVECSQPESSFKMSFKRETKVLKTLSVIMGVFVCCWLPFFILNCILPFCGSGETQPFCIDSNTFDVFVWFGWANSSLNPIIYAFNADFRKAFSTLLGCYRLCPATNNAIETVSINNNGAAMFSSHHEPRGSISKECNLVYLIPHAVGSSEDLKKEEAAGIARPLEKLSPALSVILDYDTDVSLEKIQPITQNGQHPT
T2 sequence (P21728 whole entry): as above

| Compound | % Maximal Inhibition Mean ± SD (N = 3), FLIPR (human D1 receptors; HEK-D1/Gα15 cells) | IC50 (human D1 receptors; [1]) | Emax (dopamine D1 receptor; HEK-D1/CRE/Luc2P cells) | IC50 (dopamine D1 receptor; [2]) | inhibition at 12.5 µM (dopamine D1 receptor) | antagonist profile in luciferase reporter gene assay (dopamine D1 receptor) | decrease of forskolin-stimulated response (cAMP levels) (HEK/CRE/Luc2P cells) | antagonist profile in FLIPR assay (human D1 receptors) | EC50 (HEK/CRE/Luc2P cells; Homo sapiens, Figure S1, read-out: EC50 for increasing intracellular cAMP (CRE-luciferase)) | IC50 (dopamine D1 receptor) | IC50 (human D1 receptors) |
| --- | --- | --- | --- | --- | --- | --- | --- | --- | --- | --- | --- |
| COc1cc2c(cc1OC)-c1c(C)c3ccc(O)c(OC)c3c[n+]1CC2 [Compound 5, 13-methyldehydrocorydalmine] | 77.04 ± 6.6410% | 3.08 µM | 86 ± 1.76% | 10.3 µM | ≥ 50% | – | 25% | concentration-dependent antagonist responses | – | – | – |
| COc1cc2c(cc1OC)[C@@H]1Cc3ccc(OC)c(OC)c3CN1CC2 [Compound 2, Tetrahydropalmatine] | 92.64 ± 1.7945% | 2.24 µM | 72.5 ± 4% | 0.644 µM | ≥ 50% | partial antagonist effects | – | concentration-dependent antagonist responses | – | – | – |
| C=C[C@@]1(C)CC(=O)[C@]2(O)[C@@]3(C)[C@@H](O)CCC(C)(C)[C@@H]3[C@H](O)[C@H](OC(C)=O)[C@@]2(C)O1 [Forskolin, reference compound] | – | – | – | – | – | – | – | – | 1200 nM | – | – |
| COc1cc2c(cc1OC)-c1cc3ccc(OC)c(OC)c3c[n+]1CC2 [Compound 8, Palmatine] | – | – | 93.86 ± 0.437% | – | ≥ 50% | – | 25% | weak inhibitory effects | – | 7.08 µM | – |
| COc1cc2c(cc1OC)[C@H]1[C@@H](C)c3ccc(OC)c(OC)c3CN1CC2 [Compound 4, Corydaline] | 90.32 ± 1.9817% | 3.36 µM | 83.5 ± 1.45% | 2.46 µM | ≥ 50% | – | – | concentration-dependent antagonist responses | – | – | – |
| COc1cc2c(cc1O)-c1cc3ccc(OC)c(OC)c3c[n+]1CC2 [Compound 9, Columbamine] | 86.43 ± 0.7188% | – | 97.5 ± 0.218% | – | ≥ 50% | – | – | concentration-dependent antagonist responses | – | 1.21 µM | 3.4 µM |

Now from value to molecule, other results behind:

| % Maximal Inhibition Mean ± SD (N = 3), FLIPR (human D1 receptors; HEK-D1/Gα15 cells) | IC50 (human D1 receptors; [1]) | Emax (dopamine D1 receptor; HEK-D1/CRE/Luc2P cells) | IC50 (dopamine D1 receptor; [2]) | inhibition at 12.5 µM (dopamine D1 receptor) | antagonist profile in luciferase reporter gene assay (dopamine D1 receptor) | Compound | decrease of forskolin-stimulated response (cAMP levels) (HEK/CRE/Luc2P cells) | antagonist profile in FLIPR assay (human D1 receptors) | EC50 (HEK/CRE/Luc2P cells; Homo sapiens, Figure S1, read-out: EC50 for increasing intracellular cAMP (CRE-luciferase)) | IC50 (dopamine D1 receptor) | IC50 (human D1 receptors) |
| --- | --- | --- | --- | --- | --- | --- | --- | --- | --- | --- | --- |
| – | – | 78.2 ± 1.78% | 13.4 µM | ≥ 50% | partial antagonist effects | COc1cc2c(cc1O)C1Cc3ccc(OC)c(OC)c3C[N+]1(C)CC2 (stereo not shown) [Compound 10, N-methyltetrahydrocolumbamine] | – | weak inhibitory effects | – | – | – |
| 90.61 ± 0.6541% | 1.53 µM | 98.23 ± 0.33% | 1.29 µM | ≥ 50% | – | COc1cc2c(cc1OC)-c1c(C)c3ccc(OC)c(OC)c3c[n+]1CC2 [Compound 7, Dehydrocorydaline] | – | concentration-dependent antagonist responses | – | – | – |
| 94.38 ± 0.1939% | 0.612 µM | 97.52 ± 0.626% | 0.621 µM | ≥ 50% | – | COc1cc2c(cc1O)CC[n+]1cc3c(OC)c(OC)ccc3c(C)c1-2 [Compound 6, Dehydrocorybulbine] | – | concentration-dependent antagonist responses | – | – | – |
